Values after ≈ are worked out from the molar mass of the structure shown. Read-outs that look alike come from different tables or passages of the source.
What was measured:
MDCK cells [1] = assay: cytotoxicity assay (CCK-8 cell viability); assay type: cell-based, canine; conditions: 4 h treatment
Description: (§1) Madin-Darby Canine Kidney (MDCK) cells were seeded in 96-well plates (1 × 10^5 cells/well) and cultured for 24 h at 37 °C in complete DMEM (10% FBS, 1% penicillin–streptomycin) under 5% CO2. Cells were treated for 4 h with 100 µL of complete DMEM media (pH 7.4) containing crystalline Cur, amorphous Cur, binary Cur/P188 ASD (1:8, w/w), or ternary Cur/P188/TW80 or Cur/P188/SLS ASDs (1:8:1, w/w/w), at Cur-equivalent concentrations of 0 (vehicle), 2, 10, 25, 50, 100, and 200 μg/mL. After treatment, cells were washed three times with PBS (pH 7.4). Cell viability was assessed using a CCK-8 assay: 100 µL of serum-free DMEM and 10 µL of CCK-8 reagent were added to each well, followed by incubation for 2 h. Absorbance was measured at 450 nm using a Multiskan GO microplate reader (Thermo Fisher Scientific, Vantaa, Finland).
(§2) Cell viability was calculated according to the following equation:Viability (%) = [(As − Aᵦ)/(Ac − Aᵦ)] × 100% where
(§3) • As is the absorbance of experimental wells (cells + treatment + CCK-8); • Ac is the absorbance of control wells (cells + medium + CCK-8, no drug); • Aᵦ is the absorbance of blank wells (medium + CCK-8, no cells, no drug).
(§4) All experiments were performed in quintuplicate (n = 5).

[2] = cytotoxicity assay (CCK-8 cell viability); assay type: cell-based, canine; conditions: dog, MDCK cells, pH 7.4, MDCK cells, 4 h treatment, read-out: IC50 (cytotoxicity, Cur-equivalent)
Description: as §1, §2, §3, §4

[3] = equilibrium solubility of crystalline Cur in excipient solutions; assay type: physicochemical; conditions: read-out: equilibrium solubility (Cur con.)
Description: Excess crystalline Cur was suspended in each solution, vortexed (1 min), sonicated (10 min), and incubated (37 °C, 24 h). After incubation, suspensions were filtered (0.22 μm), and Cur concentration in the filtrate was quantified using HPLC/UV-Vis (HPLC/UV-Vis Method section). All experiments were performed in quadruplicate (n = 4).
Cur content in in vitro dissolution samples was quantified using a Waters 2695 Alliance HPLC system (Waters Corporation, Milford, MA, USA) equipped with a Waters 2998 photodiode array (PDA) detector. Separation was performed on an XBridge® C18 column (4.6 × 250 mm, 5.0 μm; Waters) maintained at 25 °C. The mobile phase, composed of water and methanol (80:20, v/v), was delivered isocratically at a flow rate of 1.0 mL/min. The injection volume was 10 μL, and detection was performed at 430 nm, and Cur eluted at approximately 4.80 min. […] All data were acquired in triplicate (n = 3) and processed using Empower®3 Software (Waters).

MDCK cells [4] = assay: cellular uptake study (LC-MS/MS of intracellular Cur); assay type: cell-based, canine; conditions: 10 min incubation, 5 μg Cur-equivalent (10 μg/mL)
Description: MDCK cells were seeded in 24-well plates and cultured following the procedures described in Cytotoxicity Assay section. The cells were treated with 500 µL of complete DMEM medium (pH 7.4) containing crystalline Cur, amorphous Cur, binary Cur/P188 ASD (1:8, w/w), or ternary Cur/P188/TW80 or Cur/P188/SLS ASDs (1:8:1, w/w/w), at Cur-equivalent dose of 5 µg per well. After 10 min of incubation, the treatment was terminated by immediate removal of the medium. The cells were then washed three times with ice-cold PBS, lysed with 200 µL of 0.1% SDS (assisted by sonication), and dissolved in methanol at a 1:2 (v/v) ratio. The total intracellular Cur content was quantified using LC-MS/MS. All experiments were performed in quadruplicate (n = 4).
Cur quantification in cellular and rat plasma samples was carried out using a SCIEX QTRAP® 5500 LC-MS/MS system coupled with a SCIEX ExionLC^TM AC system (AB SCIEX, Framingham, MA, USA).
Separation was achieved on an Acquity UPLC® BEH C18 column (100 × 2.1 mm, 1.7 μm; Waters) maintained at 40 °C. […]
Mass spectrometric detection was performed using an IonDrive^TM Turbo V ion (SCIEX, Framingham, MA, USA) source operating in negative electrospray ionization (ESI) mode. Quantification was conducted via multiple reaction monitoring (MRM) at m/z 367.1→133.9 for Cur, and m/z 294.1→250.0 for diclofenac sodium (IS). […]

- solubility thermodynamic at 24 h ([3]; aqueous P188/SLS solution (8 mg/mL + 1 mg/mL), pH 7, aqueous with cosolvent or surfactant or cyclodextrin, thermodynamic from solid, P188/SLS 8 mg/mL + 1 mg/mL in water, 37 °C): 8.5 µg/mL
- solubility thermodynamic at 24 h ([3]; aqueous P188/TW80 solution (8 mg/mL + 1 mg/mL), pH 7, aqueous with cosolvent or surfactant or cyclodextrin, thermodynamic from solid, P188/TW80 8 mg/mL + 1 mg/mL in water, 37 °C): 10.3 µg/mL
- solubility thermodynamic at 24 h ([3]; aqueous P188 solution (8 mg/mL), pH 7, P188 8 mg/mL in water, 37 °C): < 0.1 µg/mL
- solubility thermodynamic at 24 h ([3]; aqueous SLS solution (1 mg/mL), pH 7, SLS 1 mg/mL in water, 37 °C): < 0.1 µg/mL
- solubility thermodynamic at 24 h ([3]; aqueous TW80 solution (1 mg/mL), pH 7, aqueous with cosolvent or surfactant or cyclodextrin, thermodynamic from solid, TW80 1 mg/mL in water, 37 °C): 9.1 µg/mL (≈ 24.7 µM)
- solubility thermodynamic at 24 h ([3]; thermodynamic from solid, pure water, pH 7.0, 37 °C, filtered 0.22 μm): < 0.1 µg/mL
- cellular uptake (% of the administered dose) (MDCK cells [4]): 0.2%
Compound: COc1cc(/C=C/C(=O)CC(=O)/C=C/c2ccc(O)c(OC)c2)ccc1O [Crystalline Cur, Curcumin]
- concentrations with negligible toxicity (MDCK cells [1]): ≤ 25000 ng/mL
- IC50 at 4 h [2]: 82.2 µg/mL
